Columns and labels:
h-TNFα = h-TNFα (Homo sapiens, UniProt P01375); assay: Monomer exchange in TNFα trimers by mass spectrometry, compound pre-incubated with human TNFα; assay type: binding; settings: 18 hours; for off-rate from h-TNFα: 1:1 complex with h-TNFα mixed with m-TNFα; for cross species monomer subunit exchange: compound preincubated with h-TNFα, then m-TNFα added
Description: Human and mouse homotrimers of TNFα (H3 and M3 respectively) were incubated together and aliquots of the solution monitored by mass spectrometry appearance of the cross species heterotrimers. The mass spectrometric analysis confirmed that monomer exchange between native TNFα trimers was able to occur in solution. The exchange rate was slow and was monitored over a course of 4 hours before full equilibration was achieved (data not shown). The mechanism is unknown, although is it unlikely to involve formation of the dimeric forms as none of these were observed. Monomer exchange is likely to be occurring between pure human and mouse trimers, the mixing of mouse and human trimers simply makes this exchange visible by mass spectrometry.
In a second series of experiments an excess of the compound of formula (1) was incubated with Human TNFα, the excess compound of formula (1) was then removed. Mass Spectral analysis confirmed that a 1:1 complex had been formed between the compound of formula (1) and h-TNFα. Mouse TNFα was now added to this sample which was then subjected to mass spectral analysis over a number of hours. After 18 hours there was no observed change in the composition of the sample. […] In addition, there was no evidence of formation of the M3L species and no evidence of formation of the unligated H3 species.
These two experiments were then repeated with the compound of formula (2) instead of the compound of formula (1). The results when the compound of formula (2) was pre-incubated with h-TNFα to give a 1:1 complex and then mixed with unligated m-TNFα were the same as with the compound of formula (1).

[1] = test system: hTNFα-induced neutrophil recruitment; assay: Neutrophil recruitment in mice, compound pre-mixed with hTNFα and injected i.p.; assay type: in vivo, Balb/c mice; settings: for effect of compound alone on neutrophil recruitment: compound only mice, no TNFα; for neutrophil recruitment versus TNFα in the absence of the compound: sample 1, ratio compound:TNFα 0.1:1, i.p.; for neutrophil recruitment versus TNFα in the absence of the compound / inhibition of neutrophil recruitment: 2 h
Description: In separate studies, compounds of formula (1) and formula (2) were mixed with 20 μM solutions of TNFα dissolved in phosphate buffered saline (PBS) to a concentration of 2 μM, 20 μM and 200 μM. The ratio of each compound to TNFα was, therefore, 0.1:1 (sample 1), 1:1 (sample 2) and 10:1 (sample 3). […] This process separates protein bound compound and free compound. A control sample containing PBS only was processed in the same way to provide a vehicle control for the study. The concentration of eluted protein was determined using a Nanodrop (ND-1000). The TNFα:compound complexes were diluted in PBS to a concentration for injection of 0.03 μg/kg.
For the study, typically, each group contained 10 male Balb/c mice (Charles River) apart from an anti-human TNFα antibody positive control, which used a set of 5 mice.
Compound only mice were also included in the study to assess the effect of compound on neutrophil recruitment.
All mice were killed by cervical dislocation two hours post-injection of hTNFα (t=2 h) and the peritoneal cavity was lavaged with 3 mL of FACS buffer (500 mL PBS containing 2 g bovine serum albumin, 6 mL HEPES buffer and […]). Lavage fluid was aspirated and neutrophil numbers were assessed by staining cells with anti-Gr1 PE and anti-CD45 FITC by FACS as detailed below.
100 μL of lavage fluid from each sample was aliquoted into FACS tubes. A FACS cocktail was made up using anti-GR-1 PE (BD cat #553128 Lot #75542) at 1 in 39 dilution and anti-CD45 FITC (BD cat #553080 Lot #80807) at 1 in 19 dilution in FACS buffer. Fc block (BD Cat #553142 Lot #87810) was prepared 1 in 10 with FACS buffer and 10 μL added to each sample 5 minutes before adding the antibody cocktail. […] Samples were then left for 20 mins on ice. 1 mL of FACS Lyse solution (BD Cat #349202 Lot #29076, diluted 1:10 in dH2O) was added to each tube, mixed and left at room temperature for 5 minutes. 1 mL of FACS Buffer was then added to each tube and centrifuged at 400 g for 5 minutes. The FACS buffer was then carefully poured off and the tip of the tube dabbed on absorbent paper to leave the tube completely dry. Then […] of 1 in 10 Reference Bead solution (Sigma cat # P2477 Lot #116K1612) diluted in FACS buffer was added to each tube.
Samples were analysed using FACScalibur II and FloJo software.

TNFα [2] = target: T1, TNFα (Homo sapiens, UniProt P01375); assay: Fluorescence probed thermal denaturation assay (Thermofluor) of TNFα; assay type: binding; settings: TNFα + 5% DMSO + compound
T1 sequence (P01375 77-233 limits assumed): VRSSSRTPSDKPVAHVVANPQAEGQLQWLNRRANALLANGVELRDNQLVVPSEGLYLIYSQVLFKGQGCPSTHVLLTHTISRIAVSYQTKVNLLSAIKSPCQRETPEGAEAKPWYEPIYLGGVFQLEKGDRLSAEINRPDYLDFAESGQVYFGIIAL
Description: A fluorescence probed thermal denaturation assay was performed to assess the effect of the compounds on the thermal stability of TNFα as a measure of compound binding. The reaction mix contained 5 μl of 30×SYPRO® Orange dye (Invitrogen) and 5 μl of TNFα (at 1.0 mg/ml), 37.5 μl PBS, pH 7.4 and 2.5 μl of compound (at 2 mM in DMSO). 10 μl of the mix was dispensed in quadruplicate into a 384 PCR optical well plate and was run on a 7900HT Fast Real-Time PCR System ([…]). PCR System heating device was set at 20° C. to 99° C. with a ramp rate of 1.1° C./min; fluorescence changes in the wells were monitored by a Charge-coupled device (CCD). The fluorescence intensity increase was plotted as a function of temperature and the Tm calculated as the midpoint of this denaturation curve (determined as the point of inflection) (Table 1).
Thermofluor measures the change of melting temperature (Tm) of TNFα due to compound either stabilising or disrupting the protein.

TNFα [3] = target: T1, TNFα; assay: Fluorescence polarization assay, competition with the compound of formula (4) for TNFα; settings: TNFα 50 nM, compound of formula (4) 10 nM, 5% DMSO; read-out: IC50 (inhibition of binding of the compound of formula (4) to TNFα)
Description: The final concentrations of TNFα and the compound of formula (4) were 50 nM and 10 nM respectively in a total assay volume of 25 μl. Plates were read on an Analyst HT reader. An IC50 was calculated using xlfit (4 parameter logistic model) in Activity Base.
C87 was preincubated with TNFα for 1 hour prior to assay against the fluorescent compound (probe). Competition with the fluorescent compound either directly (binding at the same site) or indirectly (disrupting TNF) is detected by a reduction in FP.

Chain of h-TNFα (P01375 77-233 limits assumed): as above

`Cc1ccc(C)c(Cn2c(C(O)c3ccncc3)nc3ccccc32)c1` (centres unmarked) [Compound (1), [1-(2,5-Dimethylbenzyl)-1H-benzimidazol-2-yl](pyridin-4-yl)methanol] was tested, and the “off-rate from h-TNFα” value (h-TNFα) was “no measurable off-rate”, the “cross species monomer subunit exchange” value (h-TNFα) was “no cross species monomer subunit exchange was observed” and the “effect of compound alone on neutrophil recruitment” value [1] was “negligible effect”. The “neutrophil recruitment versus TNFα in the absence of the compound” value [1] was “not significantly different”, the “inhibition of neutrophil recruitment” value ([1]; sample 2, ratio compound:TNFα 1:1, i.p.) was 86% and the “inhibition of neutrophil recruitment” value ([1]; sample 3, ratio compound:TNFα 10:1, i.p.) was 85%. For the same molecule, the “Tm difference (=(TNF + cpd) − (TNF + DMSO))” value (TNFα [2]) was 11.8 and the IC50 (TNFα [3]) was 167 nM.
In the case of `Cc1ccc(C)c(Cn2c(C(O)c3ccncc3)nc3ccc(-c4cnn(C)c4)cc32)c1` (centres unmarked) [Compound (2), [1-(2,5-Dimethylbenzyl)-6-(1-methyl-1H-pyrazol-4-yl)-1H-benzimidazol-2-yl](pyridin-4-yl)methanol], the “off-rate from h-TNFα” value (h-TNFα) is reported as “no measurable off-rate”, the “cross species monomer subunit exchange” value (h-TNFα) is reported as “No monomer subunit exchange was observed” and the “effect of compound alone on neutrophil recruitment” value [1] is reported as “negligible effect”. For the same molecule, the “neutrophil recruitment versus TNFα in the absence of the compound” value [1] was “not significantly different”, the “Tm difference (=(TNF + cpd) − (TNF + DMSO))” value (TNFα [2]) was 17.1 and the IC50 (TNFα [3]) was 102 nM.

Source: patent publication US10705094B2, “TNF receptor signaling modulator assay” (UCB Biopharma SRL, priority 2015, dated 2020)
